# Measurements taken from patent publication US12329799B2, “Peptidyl inhibitors of calcineurin-NFAT interaction” (Ohio State Innovation Foundation, priority 2018, dated 2025).
# Positions of bridges follow the written chain, without caps; N, C: chain ends. Non-standard residues stand in square brackets, D forms with d. Residues, ends and D or L forms follow the SMILES beside them. Chains are numbered I, II in the order given. *: point of attachment. 2Nal = N[C@@H](Cc1ccc2ccccc2c1)C(=O)O; Val(3-OH) = CC(C)(O)[C@H](N)C(=O)O; Tle = CC(C)(C)[C@H](N)C(=O)O; X1 = O=C(c1ccnc(Cl)c1Cl)*; AEEA = NCCOCCOCC(=O)O
# Tests used:
# HCT116 cell spheroids = assay: Cellular entry and intracellular stability by MALDI-TOF MS imaging; type: cell-based; conditions: 5 μM, 24 h of incubation
# Protocol: Intracellular Stability. HCT116 cell spheroids in RPMI-1640 medium supplemented with 10% FBS and 1% penicillin/streptomycin were treated with 5 μM CNI103 for 4 or 24 h. Spheroids were washed three times with warm DPBS, quickly frozen, embedded in a solid support and cryo-sectioned. Prior to analysis, sinapinic acid was sublimed onto individual slides, which were subsequently imaged using a Bruker ultrafleXtreme MALDI-TOF-TOF mass spectrometer. The spectra were analyzed for intact CNI103 as well as proteolytic degradation fragments of interest. The MS signal intensity data were used to generate Heatmaps, scaled relative to the most intense signal, for each time point and fragment.
# [1] = Caco-2 permeability assay; type: in vitro ADME; conditions: human, Caco-2, pH 7.4
# Protocol: (§1) Caco-2 permeability assay. To assay the permeability of test compounds by Caco-2 cell model, Caco-2 cells were cultured to confluency before being trypsinized and seeded onto filter transwell inserts at a density of 30,000 cells/well in DMEM medium. Cells were cultured in a humidified atmosphere with 5% CO2 at 37° C. After overnight attachment, cell medium was replaced with fresh medium at both apical and basolateral sides every other day. The cell monolayers are ready for the assay 20 days post seeding. […] The dosing solution at 10 μM was obtained by diluting 10 mM stock solution in HBSS medium (pH 7.4, 25 mM HEPES) freshly before the assay. Terfenadine (25 ng/mL) and Tolbutamide (50 ng/mL) were added into dosing solution as internal standards. […] The culture medium from either the basolateral side (plate B) or apical side (plate A) were aspirated and then rinsed with HBSS medium once. Afterwards, the dosing medium was added to either basolateral or apical side. Following the incubation, 100 microliter samples from both sides were harvested at time 0 and time 90 min. Samples were quenched with acetonitrile/methanol (1:1 v/v), centrifuged, and analyzed on a Shimadzu reversed-phase HPLC and Sciex API4500 Q trap instrument.
# (§2) Permeability parameters were calculated using the following equations and shown in Table 10: Papp=(Conc.receiver,90 min*Volumereceiver)/(Time*Membrane Area*Conc.donor,0 min) Efflux Ratio=Papp[B to A]/Papp[A to B]
# Caco-2 cell monolayers = assay: Caco-2 permeability assay; type: in vitro ADME
# Protocol: as §1, §2
# [2] = Liver microsome stability assay; type: in vitro ADME; conditions: mouse liver microsome
# Protocol: Liver microsome stability assay. Liver microsome stability was assessed using mouse microsome (cat. M1000, XenoTech). Ten mM stock solution of CNI103 was similarly prepared in DMSO. One hundred micromolar of CNI103 solution was prepared by diluting the DMSO stock in phosphate buffer (50 mM potassium phosphate, pH 7.4). To assay the stability, liver microsomes (final concentration 0.5 mg/mL) were mixed with testing samples gently and incubated at 37° C. for 5 min. At varying time points post reaction (0, 5, 15, 30, and 60 min), 25 microliter aliquots were withdrawn and each aliquot (25 microliter) was quenched with 300 μL of an internal standard solution (25 ng/mL terfenadine in 1:1 v/v methanol/acetonitrile) followed by vigorous vortexing and centrifugation. To assess metabolism by P450 enzymes, the microsome degradation reaction was supplemented with NADPH (final 1 mM) followed by gentle mixing. 100 μL aliquots of the reaction mixture were withdrawn at 0, 30, or 60 min, diluted two fold with distilled water, and subjected to LC-MS/MS analysis on a reversed-phase HPLC coupled with Sciex 4500 Q-trap based quantification.
# [3] = Stability in mouse hepatocytes; type: in vitro ADME
# Protocol: (§3) Stability of CNI103 in mouse hepatocytes. Hepatocyte stability was assessed by using mouse hepatocyte (cat. M005052, BioIVT). Mouse hepatocytes were revived following manufacturer's procedure with Cryopreserved Hepatocyte Recovery Medium and used for the assay when cell viability was greater than 70%. Testing compound (at 2 μM) was mixed with mouse hepatocytes at 37° C. in a humidified incubator with 5% CO2. Final hepatocyte cell density was 2 million per mL. […] of the resulting supernatant was diluted two fold with distilled water and analyzed by reversed-phase HPLC coupled with Sciex 4500 Q-trap based quantification.
# mouse hepatocytes = assay: Stability in mouse hepatocytes; type: in vitro ADME; conditions: 2 μM
# Protocol: as §3
# in vitro = in vitro ADME; parameters: dose or concentration left out as unconfirmed; conditions: mouse
# Protocol: Plasma binding was assessed using mouse plasma obtained from in-life studies. CNI103 was diluted to […] in pre-warmed mouse plasma. The solution was added to the left chamber of a commercial plate based RED (rapid equilibrium dialysis) device. Isotonic sodium phosphate buffer (100 mM sodium phosphate, 100 mM sodium chloride, pH 7.4) was added to the outer chamber of the RED device and the plate was incubated at 37° C. for five hours. Aliquots of the buffer and the plasma were withdrawn before and after the incubation and the concentrations of free and bound test compound were determined by LC/MS/MS analysis. To test for plasma stability, the dosing solution was also incubated at 37° C. for 5 hours and the concentration of CNI103 was determined by LC/MS/MS analysis as described above.
# The calculation of percentage binding is calculated using the following equations and the results are presented in Table 13: Binding %=(Cpe−Cb)/Cpe×100 • Cpe=Conc. of test compound in plasma at equilibrium • Cb=Conc. of test compound in buffer at equilibrium % Stability of test compound=(Conc. of stability sample/Conc. of time zero sample)×100 % Recovery=(Cpe+Cb)/Conc. of stability sample×100
# [4] = Stability in simulated gastric fluid (SGF); type: in vitro ADME
# Protocol: (§4) Stability of CNI103 in simulated gastric fluid (SGF) was evaluated by diluting CNI103 (final 5 μM) in FaSSGF buffer (pH 1.2), which was prepared from FaSSGF powder (cat no. FFF01, BioRelavant). Similarly, stability of CNI103 in simulated intestinal fluid (SIF) was evaluated by diluting CNI103 (final 5 μM) in FaSSIF buffer (pH 6.5), which was prepared from FaSSIF powder (cat no. FFF-1017-B, BioRelavant) supplemented with Lecithin and maleic acid. The solutions were incubated at 37° C. for 5, 15, 30, 60, or 120 min, and the concentration of remaining CNI103 was determined by LC/MS/MS analysis as described above.
# [5] = Stability in simulated intestinal fluid (SIF); type: in vitro ADME
# Protocol: as §4
smiles,measurement,setting,value
"CC[C@H](C)[C@H](NC(=O)[C@@H](NC(=O)c1ccnc(Cl)c1Cl)C(C)(C)C)C(=O)N[C@H](C(=O)N[C@H](C(=O)N[C@H](C(=O)N[C@@H](CCC(N)=O)C(=O)N[C@@H](Cc1c[nH]cn1)C(=O)N[C@H](CC(C)C)C(=O)N[C@@H](CO)C(=O)NCCOCCOCC(=O)N[C@@H](CCCCNC(=O)CC[C@@H]1NC(=O)[C@@H](CCCNC(=N)N)NC(=O)[C@H](CCCNC(=N)N)NC(=O)[C@@H](CCCNC(=N)N)NC(=O)[C@H](CCCNC(=N)N)NC(=O)[C@H](Cc2ccc3ccccc3c2)NC(=O)[C@@H](Cc2ccccc2)NC1=O)C(N)=O)[C@@H](C)O)[C@@H](C)CC)C(C)(C)O [CNI103, (DCNA)-Tle-Ile-Bhv-Ile-Thr-Gln-His-(D-Leu)-Ser-miniPEG-Lys{[cyclo-(Gln-(D-Arg)-Arg-(D-Arg)-Arg-(2-Nal)-(D-Phe)]}-NH2] (I: X1-[Tle]I[Val(3-OH)]ITQH[dL]S[AEEA]K-NH2 / II: cyclo([2Nal]R[dR]R[dR]E[dF]); amide I:11-II:6 (inferred); ring closure inferred)",intracellular degradation,HCT116 cell spheroids,No significant degradation product signal
same,"Papp A→B at 90 min, 10 μM","[1]; N = 2, 10 μM, 90 min",7.5 ×10⁻⁶ cm/s
same,"Papp B→A at 90 min, 10 μM","[1]; N = 2, 10 μM, 90 min",2.1 ×10⁻⁶ cm/s
same,"efflux ratio at 90 min, 10 μM",[1]; Papp[B to A]/Papp[A to B],0.3
same,Pgp Substrate,Caco-2 cell monolayers,No
same,remaining at 0.25 h,"[2]; liver microsomes, pH 7.4, 15 min, read-out: % remaining (+NADPH)",95.8%
same,remaining at 0.5 h,"[2]; liver microsomes, pH 7.4, 30 min, read-out: % remaining (+NADPH)",76%
same,remaining at 1 h,"[2]; liver microsomes, pH 7.4, 60 min, read-out: % remaining (+NADPH)",75.1%
same,% remaining (+NADPH),[2]; 0 min,100.0%
same,% remaining (−NADPH),[2]; 0 min,100.0%
same,% remaining (+NADPH),[2]; 5 min,131.1%
same,% remaining (−NADPH),[2]; 30 min,113.6%
same,% remaining (−NADPH),[2]; 60 min,70.8%
same,"remaining at 0.25 h, 2 μM",[3]; 15 min,103%
same,"remaining at 0.5 h, 2 μM",[3]; 30 min,101%
same,"remaining at 1 h, 2 μM",[3]; 60 min,120%
same,% remaining,mouse hepatocytes; 0 min,100.00%
same,% remaining,mouse hepatocytes; 90 min,141.77%
same,% remaining,mouse hepatocytes; 120 min,124.89%
same,recovery at 5 hours,in vitro; pH 7.4,130%
same,remaining at 5 h,in vitro; plasma,110%
same,fraction unbound at 5 h,"in vitro; plasma, pH 7.4",0.024
same,% remaining,"[4]; SGF (FaSSGF, pH 1.2), 37° C., 0 min, n = 2",100.00%
same,"remaining at 5 min, 5 μM","[4]; simulated gastric fluid (FaSSGF), pH 1.2, SGF, 5 min",93.7%
same,"remaining at 0.25 h, 5 μM","[4]; simulated gastric fluid (FaSSGF), pH 1.2, SGF, 15 min",87.4%
same,"remaining at 0.5 h, 5 μM","[4]; simulated gastric fluid (FaSSGF), pH 1.2, SGF, 30 min",88.3%
same,"remaining at 1 h, 5 μM","[4]; simulated gastric fluid (FaSSGF), pH 1.2, SGF, 60 min",106%
same,"remaining at 2 h, 5 μM","[4]; simulated gastric fluid (FaSSGF), pH 1.2, SGF, 120 min",103%
same,% remaining,"[5]; SIF (FaSSIF, pH 6.5), 37° C., 0 min, n = 2",100.00%
same,"remaining at 5 min, 5 μM","[5]; simulated intestinal fluid (FaSSIF), pH 6.5, SIF, 5 min",92.3%
same,"remaining at 0.25 h, 5 μM","[5]; simulated intestinal fluid (FaSSIF), pH 6.5, SIF, 15 min",109%
same,"remaining at 0.5 h, 5 μM","[5]; simulated intestinal fluid (FaSSIF), pH 6.5, SIF, 30 min",109%
same,"remaining at 1 h, 5 μM","[5]; simulated intestinal fluid (FaSSIF), pH 6.5, SIF, 60 min",95.9%
same,"remaining at 2 h, 5 μM","[5]; simulated intestinal fluid (FaSSIF), pH 6.5, SIF, 120 min",75.6%
